This note sets out measurements from patent US8426425B2, “Aminopyrimidines useful as inhibitors of protein kinases” (Vertex Pharmaceuticals Incorporated, priority 2006, dated 2013).

Broadly, the Ki is a dissociation constant, usually derived from enzyme kinetics or from competition with a known ligand.

The target in the assay is T1, GSK-3β (AA 1-420) (Homo sapiens, UniProt P49841).
T1 construct: GSK-3β (AA 1-420)
T1 sequence (P49841 whole entry, species assumed, the tested form may be a part): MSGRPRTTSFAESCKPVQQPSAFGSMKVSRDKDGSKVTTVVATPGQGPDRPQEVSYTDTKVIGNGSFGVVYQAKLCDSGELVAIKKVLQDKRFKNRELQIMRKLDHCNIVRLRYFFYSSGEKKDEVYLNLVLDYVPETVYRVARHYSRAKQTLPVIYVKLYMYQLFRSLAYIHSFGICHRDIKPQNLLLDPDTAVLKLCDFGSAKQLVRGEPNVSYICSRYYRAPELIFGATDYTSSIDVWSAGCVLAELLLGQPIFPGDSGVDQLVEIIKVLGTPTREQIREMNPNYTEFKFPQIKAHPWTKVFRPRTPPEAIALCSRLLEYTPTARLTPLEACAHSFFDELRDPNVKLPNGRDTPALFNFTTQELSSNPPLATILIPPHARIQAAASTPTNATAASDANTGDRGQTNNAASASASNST
The assay is described as follows: GSK-3 Inhibition Assay (standard coupled enzyme system). The class given is biochemical. The following applies: 20 nM GSK-3β, 20 μM ATP, 300 μM peptide, 30° C. The procedure: Compounds of the present invention were screened for their ability to inhibit GSK-3β (AA 1-420) activity using a standard coupled enzyme system (Fox et al., Protein Sci. 1998, 7, 2249). Reactions were carried out in a solution containing 100 mM HEPES (pH 7.5), 10 mM MgCl2, 25 mM NaCl, 300 μM NADH, 1 mM DTT and 1.5% DMSO. Final substrate concentrations in the assay were 20 μM ATP (Sigma Chemicals, St Louis, Mo.) and 300 μM peptide (American Peptide, Sunnyvale, Calif.). Reactions were carried out at 30° C. and 20 nM GSK-3β. Final concentrations of the components of the coupled enzyme system were 2.5 mM phosphoenolpyruvate, 300 μM NADH, 30 μg/ml pyruvate kinase and 10 μg/ml lactate dehydrogenase.
An assay stock buffer solution was prepared containing all of the reagents listed above with the exception of ATP and the test compound of the present invention. The assay stock buffer solution (175 μl) was incubated in a 96 well plate with 5 μl of the test compound of the present invention at final concentrations spanning 0.002 μM to 30 μM at 30° C. for 10 min. Typically, a 12-point titration was conducted by preparing serial dilutions (from 10 mM compound stocks) with DMSO of the test compounds of the present invention in daughter plates. The reaction was initiated by the addition of 20 μl of ATP (final concentration 20 μM). Rates of reaction were obtained using a Molecular Devices Spectramax plate reader (Sunnyvale, Calif.) over 10 min at 30° C. The Ki values were determined from the rate data as a function of inhibitor concentration.
Regarding `Cc1cc(Nc2cc(N3CCC3)nc(C3CCCCC3)n2)n[nH]1` [Compound I-2], the Ki is less than 0.05 µM.

Compound `Fc1cnc2[nH]nc(Nc3cc(N4CCC4)nc(C4CCCCC4)n3)c2c1` [Compound I-1, N-(6-(azetidin-1-yl)-2-cyclohexylpyrimidin-4-yl)-5-fluoro-1H-pyrazolo[3,4-b]pyridin-3-amine] registered a Ki of less than 0.05 µM.

In turn, `Fc1ccc2[nH]nc(Nc3cc(N4CCC4)nc(C4CCCCC4)n3)c2c1` [Compound I-3] showed a Ki of 0.05 to 0.1 µM.
